Measurements: US9284580B2 (priority 2010, dated 2016)
Like-named read-outs stand apart in the source and are kept apart here.

Tests used:
[1] = test system: E. coli; conditions: 2% (v/v) butanol; cited from earlier work
[2] = test system: S. cerevisiae strains; conditions: 1% (v/v) butanol; most S. cerevisiae strains; cited from earlier work
[3] = test system: C. beijerinckii ATCC 55025
Excerpt: Cell growth was monitored by measuring the optical density at 600 nm (OD600) of the culture broth.

[4] = test system: P. putida; conditions: several strains of P. putida; cited from earlier work

## butanol
[1]
  growth: no growth was observed
[2]
  relative specific growth rate: 60%
[3]; 1% (v/v) butanol
  growth rate reduction: ~20%
[3]; 1.5% (v/v) butanol
  growth rate reduction: ~85%
[3]; 2% (v/v) butanol, no cell growth even after 10 days incubation
  cell growth: completely inhibited
[4]
  tolerated butanol concentration: up to 6 % (w/v)
